Assay results reported in ChEMBL document CHEMBL4699599, “Discovery of a Beetroot Protease Inhibitor to Identify and Classify Plant-Derived Cystine Knot Peptides” (J Nat Prod, 2020).
Positions of bridges follow the written chain, without caps; N, C: chain ends. Residues, ends and D or L forms follow the SMILES beside them.

Biological target: T1, Serine protease 1 (Bos taurus) (UniProt P00760)
T1 sequence (whole entry): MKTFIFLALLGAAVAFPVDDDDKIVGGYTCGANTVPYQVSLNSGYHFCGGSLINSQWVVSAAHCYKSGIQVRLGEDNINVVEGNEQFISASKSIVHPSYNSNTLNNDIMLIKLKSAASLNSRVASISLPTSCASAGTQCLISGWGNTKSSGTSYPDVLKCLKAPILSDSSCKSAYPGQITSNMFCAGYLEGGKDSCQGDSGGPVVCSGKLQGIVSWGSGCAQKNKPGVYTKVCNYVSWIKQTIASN
Test: Inhibition of bovine beta-trypsin using BAPNA as substrate assessed as […]

Activity	SMILES
536 nM	CC[C@H](C)[C@@H]1NC(=O)[C@H](CCCNC(=N)N)NC(=O)[C@H](CC(C)C)NC(=O)[C@H](CCCNC(=N)N)NC(=O)[C@@H]2CCCN2C(=O)[C@@H]2CCCN2C(=O)[C@H](Cc2cnc[nH]2)NC(=O)[C@@H]2CCCN2C(=O)[C@H](C(C)C)NC(=O)[C@@H]2CSSC[C@@H]3NC(=O)[C@H]([C@@H](C)CC)NC(=O)[C@H](CCC(N)=O)NC(=O)[C@H](CC(=O)O)NC(=O)[C@H]([C@@H](C)O)NC(=O)[C@H](CCCCN)NC(=O)[C@H](C)NC(=O)[C@@H](NC(=O)[C@H](CCC(=O)O)NC(=O)[C@H](CCC(=O)O)NC(=O)[C@H](CC(=O)O)NC(=O)[C@@H](N)CCC(=O)O)CSSC[C@H](NC(=O)[C@H](CSSC[C@@H](C(=O)N[C@@H](C)C(=O)O)NC(=O)[C@H](C(C)C)NC(=O)[C@H](Cc4ccccc4)NC1=O)NC(=O)[C@H](Cc1ccc(O)cc1)NC(=O)[C@H](CC(N)=O)NC(=O)[C@@H]1CCCN1C(=O)[C@H](C)NC(=O)[C@H](CC(N)=O)NC(=O)[C@@H]1CCCN1C(=O)[C@@H]1CCCN1C3=O)C(=O)N[C@@H](CO)C(=O)NCC(=O)N[C@@H](CO)C(=O)N2 (H-EDEECAKTDQICPPNAPNYCCSGSCVPHPPRLRIFVCA-OH; disulfide 5-21, 12-25, 20-37)
185 nM	CC[C@H](C)[C@@H]1NC(=O)[C@H](C)NC(=O)CNC(=O)[C@H](CO)NC(=O)[C@@H]2CCCN2C(=O)[C@H](CO)NC(=O)[C@@H](NC(=O)[C@@H](N)CCCCN)CSSC[C@@H]2NC(=O)[C@@H]3CSSC[C@@H](C(=O)N[C@@H](CCC(N)=O)C(=O)O)NC(=O)[C@H](C(C)C)NC(=O)[C@H](Cc4ccccc4)NC(=O)[C@H]([C@@H](C)CC)NC(=O)[C@H](CCCNC(=N)N)NC(=O)[C@H](CC(C)C)NC(=O)[C@H]([C@@H](C)CC)NC(=O)[C@@H]4CCCN4C(=O)[C@H](Cc4cnc[nH]4)NC(=O)[C@@H]4CCCN4C(=O)[C@H](C(C)C)NC(=O)[C@H](CSSC[C@H](NC1=O)C(=O)N[C@@H](CO)C(=O)NCC(=O)N[C@@H](Cc1ccccc1)C(=O)NCC(=O)N1CCC[C@H]1C(=O)N1CCC[C@H]1C(=O)N[C@@H](CCC(=O)O)C(=O)N[C@@H](CCC(N)=O)C(=O)N3)NC(=O)[C@H](C)NC(=O)CNC(=O)[C@H](CO)NC2=O (H-KCSPSGAICSGFGPPEQCCSGACVPHPILRIFVCQ-OH; disulfide 2-19, 9-23, 18-34)
